In series [1] the test system is Mus musculus. The series can be described thus: Antidepressant activity in Swiss albino mouse assessed as reduction of immobility time at 20 mg/kg, ip measured during last 4 mins of a 6 mins test session by forced swim test. Format: functional. Also on record: scale not given: the % may be the effect or the level left. The following applies: route intraperitoneal.

Series [2] deals with T1, 5-hydroxytryptamine receptor 7 (Homo sapiens, UniProt P34969).
In series [3] the test system is Mus musculus. The series can be described thus: Antidepressant activity in Swiss albino mouse assessed as reduction of immobility time at 5 mg/kg, ip measured during last 4 mins of a 6 mins test session by forced swim test. Also noted: scale not given: the % may be the effect or the level left. The settings on record: route intraperitoneal. Format: functional.
Series [4] addresses D(3) dopamine receptor (Homo sapiens) (UniProt P35462). The series is described as follows: Displacement of [3H]-methylspiperone from human dopamine D3 receptor expressed in HEK293 at 10^-7 M after 1 hr. Type of series: cell-based. A general note: Loss of bound radioactivity is the signal in a displacement assay; it reports binding, not function.
The test system of series [5] is Mus musculus. The series is described as follows: Antipsychotic activity in CD1 mouse assessed as inhibition MK-801-evoked hyperactivity at 2.5 to 20 mg/kg, ip after 30 mins. Format: functional, organism-based.
For series [6], the system named is Mus musculus. The series is described as follows: Antidepressant activity in Swiss albino mouse assessed as reduction of immobility time at 10 mg/kg, ip measured during last 4 mins of a 6 mins test session by forced swim test. Type of series: functional. Also on record: scale not given: the % may be the effect or the level left. The following applies: route intraperitoneal.

In series [7] the target is T2, 5-hydroxytryptamine receptor 1A (Homo sapiens, UniProt P08908).
T2 sequence (P08908 whole entry): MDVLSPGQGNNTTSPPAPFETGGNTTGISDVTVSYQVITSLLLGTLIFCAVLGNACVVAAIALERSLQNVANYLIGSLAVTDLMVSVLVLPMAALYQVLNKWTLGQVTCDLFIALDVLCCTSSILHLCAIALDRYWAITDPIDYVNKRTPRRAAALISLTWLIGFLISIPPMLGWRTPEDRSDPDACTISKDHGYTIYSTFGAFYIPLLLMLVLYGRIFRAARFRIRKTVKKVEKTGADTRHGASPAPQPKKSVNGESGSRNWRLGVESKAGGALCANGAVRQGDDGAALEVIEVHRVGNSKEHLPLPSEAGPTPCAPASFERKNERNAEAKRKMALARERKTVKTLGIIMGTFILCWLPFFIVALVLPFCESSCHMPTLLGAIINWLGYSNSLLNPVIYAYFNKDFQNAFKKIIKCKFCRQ
Description: Agonist activity at human 5HT1A receptor expressed in CHO cells assessed as cAMP accumulation

Series [8] is filed under the species Mus musculus. The series is described as follows: animal or person. The following applies: Swiss albino, ip, 20 min, read-out: ID50.
Description: Antipsychotic activity in ip dosed Swiss albino mouse assessed as inhibition of (+/-)DOI-induced head twitch response after 20 mins
Series [9] concerns the target 5-hydroxytryptamine receptor 2A (Homo sapiens, UniProt P28223). The series can be described thus: biochemical.
Description: Displacement of [3H]-ketanserin from human 5HT2A receptor expressed in HEK293 after 1.5 hrs
Series [10] concerns the target T3, Adrenergic receptor alpha-1 (Rattus norvegicus, UniProt P15823+P23944+P43140).
T3 sequence (P15823 whole entry): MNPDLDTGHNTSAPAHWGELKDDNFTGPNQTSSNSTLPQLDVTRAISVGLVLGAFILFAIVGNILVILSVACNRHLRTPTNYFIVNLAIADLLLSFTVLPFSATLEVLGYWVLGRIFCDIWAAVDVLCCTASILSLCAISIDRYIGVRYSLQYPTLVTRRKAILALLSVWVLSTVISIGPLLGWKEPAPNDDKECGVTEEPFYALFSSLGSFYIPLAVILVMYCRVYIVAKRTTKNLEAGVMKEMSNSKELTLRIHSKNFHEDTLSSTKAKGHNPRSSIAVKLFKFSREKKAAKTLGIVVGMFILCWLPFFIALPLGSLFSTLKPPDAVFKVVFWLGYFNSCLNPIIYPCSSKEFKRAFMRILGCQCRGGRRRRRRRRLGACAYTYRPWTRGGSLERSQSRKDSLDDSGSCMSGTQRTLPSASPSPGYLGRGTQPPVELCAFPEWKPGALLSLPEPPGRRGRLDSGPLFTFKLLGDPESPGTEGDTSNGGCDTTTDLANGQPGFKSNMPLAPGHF
T3 sequence (P23944 whole entry): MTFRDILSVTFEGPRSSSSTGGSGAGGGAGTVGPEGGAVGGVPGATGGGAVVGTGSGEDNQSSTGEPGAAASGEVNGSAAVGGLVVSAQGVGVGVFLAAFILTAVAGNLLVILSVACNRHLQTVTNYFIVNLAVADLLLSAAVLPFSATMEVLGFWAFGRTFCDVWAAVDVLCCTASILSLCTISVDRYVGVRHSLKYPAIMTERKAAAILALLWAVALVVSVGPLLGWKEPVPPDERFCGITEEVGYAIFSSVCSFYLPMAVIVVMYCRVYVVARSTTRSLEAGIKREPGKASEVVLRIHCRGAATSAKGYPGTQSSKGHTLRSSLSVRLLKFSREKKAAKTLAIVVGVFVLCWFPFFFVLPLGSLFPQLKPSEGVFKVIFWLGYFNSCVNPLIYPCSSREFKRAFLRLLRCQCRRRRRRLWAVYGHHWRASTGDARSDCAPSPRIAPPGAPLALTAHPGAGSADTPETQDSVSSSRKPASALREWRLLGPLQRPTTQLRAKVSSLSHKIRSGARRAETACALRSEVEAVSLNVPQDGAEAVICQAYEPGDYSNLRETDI
T3 sequence (P43140 whole entry): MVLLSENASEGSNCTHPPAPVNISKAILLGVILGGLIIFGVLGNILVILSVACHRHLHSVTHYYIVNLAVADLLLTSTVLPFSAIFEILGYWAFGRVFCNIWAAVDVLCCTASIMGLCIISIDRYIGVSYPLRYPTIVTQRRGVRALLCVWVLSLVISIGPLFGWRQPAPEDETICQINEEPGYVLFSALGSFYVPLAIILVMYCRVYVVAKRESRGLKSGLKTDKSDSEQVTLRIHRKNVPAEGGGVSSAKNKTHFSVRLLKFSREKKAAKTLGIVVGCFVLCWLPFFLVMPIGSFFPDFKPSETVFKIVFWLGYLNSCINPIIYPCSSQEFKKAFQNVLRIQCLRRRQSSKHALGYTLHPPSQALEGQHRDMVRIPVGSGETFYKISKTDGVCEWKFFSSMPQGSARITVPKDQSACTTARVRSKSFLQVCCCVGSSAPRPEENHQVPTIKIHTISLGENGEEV
Description: Displacement of [3H]-Prazosin from adrenergic alpha1 receptor in rat cortex after 30 mins by scintillation counting

For series [11], the target named is D(2) dopamine receptor (Homo sapiens, UniProt P14416). The series can be described thus: biochemical. Type of series: cell-based, HEK293.
Description: Displacement of [3H]-raclopride from human dopamine D2L receptor expressed in HEK293 after 1 hr
The target in series [12] is T1, 5-hydroxytryptamine receptor 7. The source holds these as a separate data set.
In series [13] the test system is Mus musculus. The series can be described thus: Toxicity in Swiss albino mouse assessed as locomotor activity at 5 to 20 mg/kg, ip measured after 2 to 6 mins. Format: organism-based. Also noted: route intraperitoneal. The following applies: in vivo.
Series [14] is filed under the species Mus musculus. The series is described as follows: animal or person. The settings on record: Swiss albino, ip, read-out: ID50.
Description: Antipsychotic activity in ip dosed Swiss albino mouse assessed as inhibition of apomorphine-induced climbing behavior administered 10 mins before apomorphine-challenge measured after 2 mins
Series [15] deals with Sodium-dependent serotonin transporter (Rattus norvegicus, UniProt P31652). The series is described as follows: biochemical.
The target of series [16] is T2, 5-hydroxytryptamine receptor 1A. The source holds these as a separate data set.
Series [17] has as its system Mus musculus. The series can be described thus: Antipsychotic activity in Swiss albino mouse assessed as inhibition of apomorphine-induced climbing behavior at 1.25 mg/kg, ip administered 10 mins before apomorphine-challenge measured after 2 mins. Type of series: functional. The following applies: route intraperitoneal.
Series [18] concerns the target D(3) dopamine receptor (Homo sapiens) (UniProt P35462). The series can be described thus: Displacement of [3H]-methylspiperone from human dopamine D3 receptor expressed in HEK293 at 10^-6 M after 1 hr. Format: cell-based.
In series [19] the target is 5-hydroxytryptamine receptor 6 (Homo sapiens, UniProt P50406).
Description: Displacement of [3H]-LSD from human 5HT6 receptor expressed in HEK293 after 1 hr

Active and inactive are the calls of the source. The calls are words filed in the database; no cut-off is given here.

T1 sequence (P34969 whole entry): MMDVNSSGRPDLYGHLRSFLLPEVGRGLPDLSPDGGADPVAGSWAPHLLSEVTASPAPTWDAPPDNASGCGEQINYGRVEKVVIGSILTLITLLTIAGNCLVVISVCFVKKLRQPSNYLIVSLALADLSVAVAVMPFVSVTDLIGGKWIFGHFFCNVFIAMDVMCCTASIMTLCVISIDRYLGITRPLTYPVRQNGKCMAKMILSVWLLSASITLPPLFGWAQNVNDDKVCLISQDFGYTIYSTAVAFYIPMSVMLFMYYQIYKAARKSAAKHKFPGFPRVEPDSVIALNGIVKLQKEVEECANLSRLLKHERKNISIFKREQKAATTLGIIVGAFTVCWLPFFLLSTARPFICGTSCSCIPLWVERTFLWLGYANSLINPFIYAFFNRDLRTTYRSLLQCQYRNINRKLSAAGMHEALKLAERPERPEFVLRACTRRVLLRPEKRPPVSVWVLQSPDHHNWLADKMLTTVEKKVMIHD
Chain of D(3) dopamine receptor (Homo sapiens) (P35462 whole entry): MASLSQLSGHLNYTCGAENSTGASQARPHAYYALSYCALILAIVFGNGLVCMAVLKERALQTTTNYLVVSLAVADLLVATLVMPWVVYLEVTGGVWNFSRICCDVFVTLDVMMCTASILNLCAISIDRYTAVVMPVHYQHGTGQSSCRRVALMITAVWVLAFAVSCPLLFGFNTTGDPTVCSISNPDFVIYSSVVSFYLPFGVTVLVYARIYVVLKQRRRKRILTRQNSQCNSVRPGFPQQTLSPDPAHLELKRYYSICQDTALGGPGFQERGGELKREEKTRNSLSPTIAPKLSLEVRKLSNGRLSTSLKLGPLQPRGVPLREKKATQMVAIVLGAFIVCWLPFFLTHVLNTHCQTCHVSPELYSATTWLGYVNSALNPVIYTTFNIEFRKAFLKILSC
Chain of 5-hydroxytryptamine receptor 2A (P28223 whole entry): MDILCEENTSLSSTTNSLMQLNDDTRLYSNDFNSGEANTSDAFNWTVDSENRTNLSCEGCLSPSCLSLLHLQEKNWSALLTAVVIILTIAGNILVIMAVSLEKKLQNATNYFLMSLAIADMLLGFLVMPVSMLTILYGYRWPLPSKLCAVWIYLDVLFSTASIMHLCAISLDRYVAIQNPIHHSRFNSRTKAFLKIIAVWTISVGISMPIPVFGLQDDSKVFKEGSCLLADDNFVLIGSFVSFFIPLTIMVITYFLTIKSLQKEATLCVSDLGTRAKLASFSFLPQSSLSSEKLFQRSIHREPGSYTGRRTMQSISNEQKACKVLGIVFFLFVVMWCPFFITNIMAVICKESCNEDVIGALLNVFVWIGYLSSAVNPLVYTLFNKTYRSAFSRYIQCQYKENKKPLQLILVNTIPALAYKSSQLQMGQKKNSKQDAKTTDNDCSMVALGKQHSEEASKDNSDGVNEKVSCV
Chain of Sodium-dependent serotonin transporter (P31652 whole entry): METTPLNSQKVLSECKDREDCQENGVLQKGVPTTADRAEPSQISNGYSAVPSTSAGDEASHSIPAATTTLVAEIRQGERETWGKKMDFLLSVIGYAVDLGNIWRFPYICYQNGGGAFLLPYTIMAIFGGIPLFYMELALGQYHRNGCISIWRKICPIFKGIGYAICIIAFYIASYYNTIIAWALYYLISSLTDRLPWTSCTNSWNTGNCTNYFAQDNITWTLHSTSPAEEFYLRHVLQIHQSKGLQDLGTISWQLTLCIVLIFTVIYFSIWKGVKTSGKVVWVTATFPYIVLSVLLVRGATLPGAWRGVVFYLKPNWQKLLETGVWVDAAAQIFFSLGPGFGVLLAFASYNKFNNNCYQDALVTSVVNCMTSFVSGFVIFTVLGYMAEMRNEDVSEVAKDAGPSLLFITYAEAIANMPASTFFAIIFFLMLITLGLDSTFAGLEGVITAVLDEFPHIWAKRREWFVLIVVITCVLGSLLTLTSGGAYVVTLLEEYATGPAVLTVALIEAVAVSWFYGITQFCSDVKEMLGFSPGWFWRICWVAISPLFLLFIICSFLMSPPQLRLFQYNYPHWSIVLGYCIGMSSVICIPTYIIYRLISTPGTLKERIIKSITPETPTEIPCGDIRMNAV
Chain of 5-hydroxytryptamine receptor 6 (P50406 whole entry): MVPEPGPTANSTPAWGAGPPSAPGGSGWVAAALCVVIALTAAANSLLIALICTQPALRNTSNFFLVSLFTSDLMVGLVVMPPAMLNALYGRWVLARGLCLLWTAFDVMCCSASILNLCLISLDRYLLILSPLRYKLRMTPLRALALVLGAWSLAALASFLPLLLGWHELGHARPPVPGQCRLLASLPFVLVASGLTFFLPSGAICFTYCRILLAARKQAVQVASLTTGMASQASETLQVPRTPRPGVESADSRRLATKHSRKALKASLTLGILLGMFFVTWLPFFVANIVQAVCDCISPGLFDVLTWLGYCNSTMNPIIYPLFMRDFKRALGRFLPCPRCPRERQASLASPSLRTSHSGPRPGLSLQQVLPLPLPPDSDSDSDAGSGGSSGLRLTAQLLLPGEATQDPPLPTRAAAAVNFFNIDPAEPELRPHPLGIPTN
Chain of D(2) dopamine receptor (P14416 whole entry): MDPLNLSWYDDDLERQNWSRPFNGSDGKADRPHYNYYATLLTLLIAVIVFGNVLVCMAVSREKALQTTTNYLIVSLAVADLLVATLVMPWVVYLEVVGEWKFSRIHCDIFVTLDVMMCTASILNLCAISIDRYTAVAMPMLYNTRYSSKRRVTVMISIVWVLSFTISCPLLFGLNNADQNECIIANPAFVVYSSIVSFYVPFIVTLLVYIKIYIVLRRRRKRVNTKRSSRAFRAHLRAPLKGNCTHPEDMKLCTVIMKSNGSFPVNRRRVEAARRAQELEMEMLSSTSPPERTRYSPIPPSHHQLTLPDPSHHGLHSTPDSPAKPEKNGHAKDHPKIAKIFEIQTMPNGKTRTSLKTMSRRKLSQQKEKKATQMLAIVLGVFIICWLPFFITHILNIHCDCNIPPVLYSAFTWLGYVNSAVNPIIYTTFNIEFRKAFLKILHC

The term IC50 denotes the concentration needed to halve the response being measured. One may read the inhibition as how much of the control response was suppressed. For orientation: EC50 means the concentration needed to bring the measured effect to its halfway point. The Ki is the equilibrium dissociation constant of an inhibitor or competing ligand from its target. Usually inhibition in vivo stands for the relative decrease from the control value, in per cent. As to `O=S(=O)(NCCCCN1CCN(c2cccc(Cl)c2Cl)CC1)c1cc2ccccc2cn1`, the Activity in [1] is 83%; in series [3] it was 43%; in series [6], 53%; in series [13] it was “Non-toxic”. The half-maximal inhibitory concentration (IC50) in series [2] stood at 5600 nM. Also, the inhibition stood at 95% in [4] and 98% in [18]. Also, the inhibition result in series [5] was “inactive”. The same molecule registered a half-maximal effective concentration (EC50) in [7] of 15500 nM. In addition, the ED50 turned out to be 9.03 mg/kg in series [8] and 19.9 mg/kg in series [14]. For the same molecule, the Ki in [9] was determined as 35 nM; in series [10], 255 nM; in series [11], 17 nM; in [12], 56 nM; in series [15], 335 nM; in [16], 34 nM. Also, the Ki in [19] is 454 nM. Moreover, the inhibition in vivo at 1.25 mg/kg in series [17] stood at 49.1%.

Source of the values: ChEMBL document CHEMBL2311489 (Eur J Med Chem, 2013).
